How the values were obtained:
Assay type in all cases: in vivo
[1] = system: barnyardgrass (Echinochloa crus-galli); assay: Test A preemergence, barnyardgrass; details: Preemergence, 0 to 100 scale (0 no effect, 100 complete control)
In short: (§1)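 Planted seeds in loam soil mixed with sand; sprayed soil directly (pre). Grew seedlings to one- to two-leaf stage, 2–10 cm; sprayed foliage (post). Held in greenhouse ~10 days. Rated injury visually vs untreated controls, 0–100.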

[2] = system: kochia (Kochia scoparia); assay: Test A preemergence, kochia; details: Preemergence, 0 to 100 scale (0 no effect, 100 complete control)
In short: as §1

[3] = system: ragweed (common ragweed, Ambrosia elatior); assay: Test A preemergence, ragweed; details: Preemergence, 0 to 100 scale (0 no effect, 100 complete control)
In short: as §1

[4] = system: ryegrass, Italian (Italian ryegrass, Lolium multiflorum); assay: Test A preemergence, Italian ryegrass; details: Preemergence, 0 to 100 scale (0 no effect, 100 complete control)
In short: as §1

[5] = system: foxtail, giant (giant foxtail, Setaria faberii); assay: Test A preemergence, giant foxtail; details: Preemergence, 0 to 100 scale (0 no effect, 100 complete control)
In short: as §1

[6] = system: pigweed (Amaranthus retroflexus); assay: Test A preemergence, pigweed; details: Preemergence, 0 to 100 scale (0 no effect, 100 complete control)
In short: as §1

[7] = system: barnyardgrass (Echinochloa crus-galli); assay: Test A postemergence, barnyardgrass; details: postemergence, 0 to 100 scale, 0 is no effect, 100 is complete control, approximately 10 days
In short: as §1

[8] = system: kochia (Kochia scoparia); assay: Test A postemergence, kochia; details: postemergence, 0 to 100 scale, 0 is no effect, 100 is complete control, approximately 10 days
In short: as §1

[9] = system: ragweed (common ragweed, Ambrosia elatior); assay: Test A postemergence, ragweed; details: postemergence, 0 to 100 scale, 0 is no effect, 100 is complete control, approximately 10 days
In short: as §1

[10] = system: ryegrass, Italian (Italian ryegrass, Lolium multiflorum); assay: Test A postemergence, Italian ryegrass; details: postemergence, 0 to 100 scale, 0 is no effect, 100 is complete control, approximately 10 days
In short: as §1

[11] = system: foxtail, giant (giant foxtail, Setaria faberii); assay: Test A postemergence, giant foxtail; details: postemergence, 0 to 100 scale, 0 is no effect, 100 is complete control, approximately 10 days
In short: as §1

[12] = system: pigweed (Amaranthus retroflexus); assay: Test A postemergence, pigweed; details: postemergence, 0 to 100 scale, 0 is no effect, 100 is complete control, approximately 10 days
In short: as §1

[13] = system: wheat (Triticum aestivum); assay: Test A postemergence, wheat; details: postemergence, 0 to 100 scale, 0 is no effect, 100 is complete control, approximately 10 days
In short: as §1

[14] = system: corn (Zea mays); assay: Test A postemergence, corn; details: postemergence, 0 to 100 scale, 0 is no effect, 100 is complete control, approximately 10 days
In short: as §1

[15] = system: blackgrass (Alopecurus myosuroides); assay: Test A postemergence, blackgrass; details: postemergence, 0 to 100 scale, 0 is no effect, 100 is complete control, approximately 10 days
In short: as §1

[16] = system: galium (catchweed bedstraw, Galium aparine); assay: Test A postemergence, galium; details: postemergence, 0 to 100 scale, 0 is no effect, 100 is complete control, approximately 10 days
In short: as §1

[17] = system: rice (Oryza sativa); assay: Test B flooded paddy test, rice; details: 250 g ai/ha, Flood; visual rating after 13 to 15 days; scale 0 to 100, 0 is no effect, 100 is complete control
In short: (§2)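 Visual injury scored 0 (no effect) to 100 (complete control) relative to controls 13-15 days after treatment in greenhouse. Treatment: test compound added into paddy water of pots flooded 3 cm over soil, holding 2-leaf-stage plants; water level kept constant.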

[18] = system: sedge, umbrella (small-flower umbrella sedge, Cyperus difformis); assay: Test B flooded paddy test, umbrella sedge; details: 250 g ai/ha, Flood; visual rating after 13 to 15 days; scale 0 to 100, 0 is no effect, 100 is complete control
In short: as §2

[19] = system: ducksalad (Heteranthera limosa); assay: Test B flooded paddy test, ducksalad; details: 250 g ai/ha, Flood; visual rating after 13 to 15 days; scale 0 to 100, 0 is no effect, 100 is complete control
In short: as §2

[20] = system: barnyardgrass (Echinochloa crus-galli); assay: Test B flooded paddy test, barnyardgrass; details: 250 g ai/ha, Flood; visual rating after 13 to 15 days; scale 0 to 100, 0 is no effect, 100 is complete control
In short: as §2

| Compound | Plant response rating, Barnyardgrass ([1]; 125 g ai/ha) | Plant response rating, Kochia ([2]; 125 g ai/ha) | Plant response rating, Ragweed ([3]; 125 g ai/ha) | Plant response rating, Ryegrass, Italian ([4]; 125 g ai/ha) | Plant response rating, Foxtail, Giant ([5]; 125 g ai/ha) | Plant response rating, Pigweed ([6]; 125 g ai/ha) | Plant response rating, Barnyardgrass ([7]; 125 g ai/ha) | Plant response rating, Kochia ([8]; 125 g ai/ha) | Plant response rating, Ragweed ([9]; 125 g ai/ha) | Plant response rating, Ryegrass, Italian ([10]; 125 g ai/ha) | Plant response rating, Foxtail, Giant ([11]; 125 g ai/ha) | Plant response rating, Pigweed ([12]; 125 g ai/ha) | Plant response rating, Wheat ([13]; 125 g ai/ha) | Plant response rating, Corn ([14]; 125 g ai/ha) | Plant response rating, Blackgrass ([15]; 125 g ai/ha) | Plant response rating, Galium ([16]; 125 g ai/ha) | Plant response rating, Rice [17] | Plant response rating, Sedge, Umbrella [18] | Plant response rating, Ducksalad [19] | Plant response rating, Barnyardgrass [20] | other results |
| --- | --- | --- | --- | --- | --- | --- | --- | --- | --- | --- | --- | --- | --- | --- | --- | --- | --- | --- | --- | --- | --- |
| Fc1cccc(Oc2ncc(Cl)cn2)c1OCCCC(F)(F)F [Compound 27] | 90 | 70 | 0 | 40 | 80 | 90 | 50 | 80 | 0 | 0 | 20 | 50 | 0 | 0 | 30 | 30 | 0 | 70 | 90 | 0 | Plant response rating, Barnyardgrass ([1]; 500 g ai/ha): 100; Plant response rating, Kochia ([2]; 500 g ai/ha): 100; Plant response rating, Ragweed ([3]; 500 g ai/ha): 20; Plant response rating, Ryegrass, Italian ([4]; 500 g ai/ha): 90; Plant response rating, Foxtail, Giant ([5]; 500 g ai/ha): 100; Plant response rating, Pigweed ([6]; 500 g ai/ha): 100; Plant response rating, Barnyardgrass ([7]; 500 g ai/ha): 80; Plant response rating, Kochia ([8]; 500 g ai/ha): 100; Plant response rating, Ragweed ([9]; 500 g ai/ha): 10; Plant response rating, Ryegrass, Italian ([10]; 500 g ai/ha): 30; Plant response rating, Foxtail, Giant ([11]; 500 g ai/ha): 80; Plant response rating, Pigweed ([12]; 500 g ai/ha): 60; Plant response rating, Wheat ([13]; 500 g ai/ha): 10; Plant response rating, Corn ([14]; 500 g ai/ha): 10; Plant response rating, Blackgrass ([15]; 500 g ai/ha): 60; Plant response rating, Galium ([16]; 500 g ai/ha): 90 |
| Fc1cccc(Oc2ncc(Cl)cn2)c1OCCC(F)(F)F [Compound 29] | 70 | 40 | 0 | 10 | 70 | 100 | 20 | 40 | 0 | 0 | 20 | 50 | 0 | 0 | 0 | 20 | 0 | 0 | 50 | 0 | Plant response rating, Barnyardgrass ([1]; 500 g ai/ha): 100; Plant response rating, Kochia ([2]; 500 g ai/ha): 100; Plant response rating, Ragweed ([3]; 500 g ai/ha): 20; Plant response rating, Ryegrass, Italian ([4]; 500 g ai/ha): 70; Plant response rating, Foxtail, Giant ([5]; 500 g ai/ha): 100; Plant response rating, Pigweed ([6]; 500 g ai/ha): 100; Plant response rating, Barnyardgrass ([7]; 500 g ai/ha): 70; Plant response rating, Kochia ([8]; 500 g ai/ha): 80; Plant response rating, Ragweed ([9]; 500 g ai/ha): 10; Plant response rating, Ryegrass, Italian ([10]; 500 g ai/ha): 20; Plant response rating, Foxtail, Giant ([11]; 500 g ai/ha): 80; Plant response rating, Pigweed ([12]; 500 g ai/ha): 100; Plant response rating, Wheat ([13]; 500 g ai/ha): 20; Plant response rating, Corn ([14]; 500 g ai/ha): 10; Plant response rating, Blackgrass ([15]; 500 g ai/ha): 50; Plant response rating, Galium ([16]; 500 g ai/ha): 50 |
| N#Cc1cccc(Oc2ncc(F)cn2)c1OCCCF [Compound 30] | 20 | 90 | 30 | 20 | 30 | 80 | 10 | 10 | 10 | 40 | 0 | 0 | 0 | 0 | 0 | 0 | 0 | 40 | 30 | 0 | Plant response rating, Barnyardgrass ([1]; 31 g ai/ha): 0; Plant response rating, Kochia ([2]; 31 g ai/ha): 90; Plant response rating, Ragweed ([3]; 31 g ai/ha): 20; Plant response rating, Ryegrass, Italian ([4]; 31 g ai/ha): 0; Plant response rating, Foxtail, Giant ([5]; 31 g ai/ha): 10; Plant response rating, Pigweed ([6]; 31 g ai/ha): 50; Plant response rating, Barnyardgrass ([7]; 31 g ai/ha): 0; Plant response rating, Kochia ([8]; 31 g ai/ha): 0; Plant response rating, Ragweed ([9]; 31 g ai/ha): 0; Plant response rating, Ryegrass, Italian ([10]; 31 g ai/ha): 30; Plant response rating, Foxtail, Giant ([11]; 31 g ai/ha): 0; Plant response rating, Pigweed ([12]; 31 g ai/ha): 0; Plant response rating, Wheat ([13]; 31 g ai/ha): 0; Plant response rating, Corn ([14]; 31 g ai/ha): 0; Plant response rating, Blackgrass ([15]; 31 g ai/ha): 0; Plant response rating, Galium ([16]; 31 g ai/ha): 0 |
| FC(F)(F)CCCOc1c(Br)cccc1Oc1ncc(Cl)cn1 [Compound 31] | 60 | 70 | 10 | 40 | 100 | 100 | 70 | 100 | 10 | 50 | 50 | 100 | 10 | 20 | 40 | 90 | 25 | 100 | 75 | 25 | Plant response rating, Barnyardgrass ([1]; 31 g ai/ha): 10; Plant response rating, Kochia ([2]; 31 g ai/ha): 0; Plant response rating, Ragweed ([3]; 31 g ai/ha): 0; Plant response rating, Ryegrass, Italian ([4]; 31 g ai/ha): 0; Plant response rating, Foxtail, Giant ([5]; 31 g ai/ha): 40; Plant response rating, Pigweed ([6]; 31 g ai/ha): 70; Plant response rating, Barnyardgrass ([7]; 31 g ai/ha): 20; Plant response rating, Kochia ([8]; 31 g ai/ha): 90; Plant response rating, Ragweed ([9]; 31 g ai/ha): 0; Plant response rating, Ryegrass, Italian ([10]; 31 g ai/ha): 10; Plant response rating, Foxtail, Giant ([11]; 31 g ai/ha): 20; Plant response rating, Pigweed ([12]; 31 g ai/ha): 80; Plant response rating, Wheat ([13]; 31 g ai/ha): 0; Plant response rating, Corn ([14]; 31 g ai/ha): 10; Plant response rating, Blackgrass ([15]; 31 g ai/ha): 20; Plant response rating, Galium ([16]; 31 g ai/ha): 40 |

From patent publication US10485235B2, “Aryloxypyrimidinyl ethers as herbicides” (FMC Corporation, priority 2015, dated 2019)
